Assay results published in patent US9296746B2, “Heterocyclic compound” (TAKEDA PHARMACEUTICAL COMPANY LIMITED, priority 2012, dated 2016).

What was measured:
[1] = system: APP transgenic mouse (Tg2576); test: Novel object recognition test using an APP transgenic mouse (Tg2576); assay type: in vivo, Tg2576 mice; details: 3 mg/mL suspension at 10 mL/kg orally once a day for 6 weeks
Method: Animals used were 6-week-old Tg2576 mice and their wild-type mice (10 mice/group). A test compound was suspended in a 0.5% aqueous methyl cellulose [133-14255 WAKO] solution (3 mg/mL). The body weight of the mice was measured, and the solution was forcibly administered orally and repeatedly at 10 mL/kg once a day for 6 weeks. Then, a novel object recognition test was performed as follows. On the day before acquisition trial, the mice kept in the same cage were put in an observation box in which the illuminance was set to 300 lx, and habituated for 30 min. After the habituation, a compound was orally administered. On the next day, the mice were put, as an acquisition trial, in an observation box in which two same objects were placed, and the number and duration of contacts to the objects were measured for 5 min under 300 lx. A compound was orally administered after the measurement. The day after the acquisition trial, the one object was replaced with a novel object, and the number and duration of contacts to each of the object were measured for 5 min. A metal cylinder and ceramic triangular pyramid were used in this test. A control group (test compound-untreated group) and a control group in wild-type mice were used for comparison. […]

[2] = target: T1, human CH24H (Homo sapiens, UniProt Q9Y6A2); test: Measurement of CH24H inhibitory activity (24-HC produced from [14C] cholesterol by human CH24H lysate); assay type: biochemical; details: test compound 1 μM, [14C] cholesterol 15 μM, 37° C., 5 hr, read-out: Inhibitory Rate (%) in 1 μM
T1 construct: Using Full-Length Mammalian Gene Collection No. 4819975 (Invitrogen) as a template; made in house; host or cells: FreeStyle 293-F cells (transient transfection); cell lysate supernatant, not purified
Method: The expression of human CH24H was performed using FreeStyle 293 Expression System (Invitrogen). According to the manual attached to FreeStyle 293 Expression System and using the plasmid DNA for human CH24H expression (pcDNA3.1(+)/hCH24H) constructed in Experimental Example 1, a transient expression using FreeStyle 293-F cell was performed. After transfection, the cells were cultured at 37° C., 8% CO2 with shaking at 125 rpm for 2 days. The cells were collected by centrifugation, and suspended in a suspension buffer (100 mM potassium phosphate (pH 7.4), 0.1 mM EDTA, 1 mM DTT, 20% Glycerol). The suspended product was disrupted by a polytron homogenizer (manufactured by Kinematica), and centrifuged at 9000×g for 10 min, and the supernatant was collected. The collected supernatant was cryopreserved (−80° C.) as a human CH24H lysate standard product.
For the measurement of CH24H inhibitory activity, using the human CH24H lysate prepared in Experimental Example 2, the amount of 24-HC produced from cholesterol by catalytic activity of CH24H was measured in the presence of a test compound, and compared with that measured in the absence of the test compound. That is, a test compound solution at various concentrations was mixed with a reaction buffer (50 mM potassium phosphate containing 0.1% BSA and Complete, EDTA-free, pH 7.4) and human CH24H lysate. Then, [^14C] cholesterol (53 mCi/mmol specific activity, 15 μM) was added, and CH24H reaction was performed at 37° C. for 5 hr. After completion of the reaction, a quenching solution consisting of chloroform/methanol/distilled water (2:2:1 v/v) was added, and the resulting 24-HC was extracted by shaking. The extract was applied to silica gel thin layer chromatography (ethyl acetate:toluene=4:6), and the obtained ^14C-24HC fraction was measured with BAS2500 (Fujifilm Corporation).
The inhibitory rate (%) was calculated from the ratio of radioactivity in the presence of a test compound relative to the radioactivity in the absence of the test compound.

T1 sequence (Q9Y6A2 whole entry): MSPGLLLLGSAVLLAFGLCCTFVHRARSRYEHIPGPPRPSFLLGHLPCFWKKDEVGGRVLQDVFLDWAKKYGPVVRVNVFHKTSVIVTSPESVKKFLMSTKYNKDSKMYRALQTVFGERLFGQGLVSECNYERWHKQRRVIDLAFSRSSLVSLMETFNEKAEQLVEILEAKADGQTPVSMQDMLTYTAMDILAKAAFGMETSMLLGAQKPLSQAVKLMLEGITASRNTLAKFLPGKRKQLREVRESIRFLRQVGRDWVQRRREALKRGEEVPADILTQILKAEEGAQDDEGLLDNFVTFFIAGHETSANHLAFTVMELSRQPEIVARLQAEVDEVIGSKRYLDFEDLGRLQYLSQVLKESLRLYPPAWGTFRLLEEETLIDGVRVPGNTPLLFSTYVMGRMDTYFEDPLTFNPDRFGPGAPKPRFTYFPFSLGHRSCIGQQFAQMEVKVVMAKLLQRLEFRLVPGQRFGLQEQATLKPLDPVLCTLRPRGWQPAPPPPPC

| Structure (SMILES) | exploration Rate (%) of Novel Object, duration of contacts [1] [%] | exploration Rate (%) of Novel Object, number of contacts [1] [%] | inhibition at 1 µM [2] [%] |
| --- | --- | --- | --- |
| O=C(c1cnc2c(-c3cnco3)cc(C(F)(F)F)cn12)N1C2CCC1COC2 [Example 85, 3-oxa-8-azabicyclo[3.2.1]oct-8-yl(8-(1,3-oxazol-5-yl)-6-(trifluoromethyl)imidazo[1,2-a]pyridin-3-yl)methanone] | 61.8 | 54.4 | 88 |
| O=C(c1cnc2c(-c3cnco3)cc(C(F)(F)F)cn12)N1C2COCC1COC2 [Example 176, 3,7-dioxa-9-azabicyclo[3.3.1]non-9-yl(8-(1,3-oxazol-5-yl)-6-(trifluoromethyl)imidazo[1,2-a]pyridin-3-yl)methanone] |  |  | 94 |
| O=C(c1cnc2c(-c3cnco3)cc(C(F)(F)F)cn12)N1CC(F)C1 [Example 177, (3-fluoroazetidin-1-yl)(8-(1,3-oxazol-5-yl)-6-(trifluoromethyl)imidazo[1,2-a]pyridin-3-yl)methanone] |  |  | 86 |
